How the values were obtained:
male Sprague-Dawley rats = assay: Cold-Evoked Cardiovascular Pressor Responses (anesthetized rat cold pressor paradigm); assay type: in vivo; settings: HPbCD, 1.5 hours relative to Cold Challenge, Na salt form
Description: Compounds of the formula (I) can be tested in animals and humans for their ability to mitigate cardiovascular pressor responses evoked by cold exposure. Seasonal environmental cooling is directly associated with elevated blood pressure and an increased incidence of coronary events in human populations worldwide (Barnett, A G et al. J Epidemiol Community Heath 2005, 59 551-557). Cold-evoked pulmonary hypertention and cold aggravation of chronic obstructive pulmonary disease are clinical indications susceptible to heightened cardiopulmonary sensitivity to cold (Marno P et al. Eur Respiratory Review 2006, 15 (101): 185.; Acikel M et al Int J of Cardiol (2004) 97: 187-192). The clinical cold pressor test assesses changes in blood pressure (BP) and cold pain perception during a 2-3 minute immersion of one hand into ice water. […] Compounds of the formula (I) can be studied in an anesthetized rat cold pressor paradigm to determine whether TRPM8 antagonism would interfere with the blood pressure pressor response to cold stimulation of the forepaws. Male Sprague-Dawley rats (300-450 g) anesthetized with sodium pentobarbital are instrumented with a jugular catheter and an indwelling carotid artery cannula connected to a pressure transducer. Vehicle (e.g. 20% HPbCD in sterile water) or test compound is infused (1 mL/kg) over one minute through the intravenous catheter. Ten minutes later both forelimbs are packed in crushed ice for 5 minutes. Alternatively, the test compound and vehicle treatments may be administered orally at an appropriated time prior to the surgical cannulations and cold challenge. Percent changes in mean arterial pressure in response to this cold stimulus are calculated for vehicle and test compound pretreatments. Percent inhibition attributed to treatment with test compound is then determined using the following formula: % Inhibition=[1−(cold evoked % change in BP post-test compound/cold evoked % change in BP post-vehicle)]×100.

Male Sprague Dawley rats = assay: Rightward Shift of Icilin Dose Effect Curve in Rats; assay type: in vivo; settings: Rattus norvegicus; compound 3 mg/kg p.o., 60 pre-icilin; icilin i.p.; read-out: Icilin ED50, mg/kg, i.p., compound pretreatment
Procedure: Male Sprague Dawley rats (200-400 g, Charles River Labs, n=6-9/treatment) were administered icilin in a suitable vehicle (e.g. PEG-400, 10% Solutol) at 0.1-30 mg/kg, i.p. Spontaneous “wet-dog” shakes were counted 10-20 minutes post-icilin in order to generate a icilin dose-effect curve. A compound of the present invention was administered orally in hydroxypropyl-β-cyclodextrin 60 minutes before icilin challenge to assess the compound's ability to inhibit spontaneous “wet-dog” shakes (WDS) produced by a range of icilin doses. The ED50 of the icilin dose-effect curve generated in the presence of TRPM8 antagonist may be compared to that generated in the presence of vehicle to determine the magnitude of rightward shift as shown below in Table 7.

SMILES: Cc1c(N(Cc2ccc(F)c(C(F)(F)F)c2)S(=O)(=O)c2ccc(C(=O)O)cc2)sc2ccccc12 [Compound 306, N-(3-Methyl-benzo[b]thiophen-2-yl)-N-(4-fluoro-3-trifluoromethyl-benzyl)-4-carboxy-benzenesulfonamide]
- Percent Inhibition, relative to vehicle (male Sprague-Dawley rats; dose 1 p.o.): 16%
- Percent Inhibition, relative to vehicle (male Sprague-Dawley rats; dose 3 p.o.): 41%
- Percent Inhibition, relative to vehicle (male Sprague-Dawley rats; dose 10 p.o.): 62%
- Percent Inhibition, relative to vehicle (male Sprague-Dawley rats; dose 30 p.o.): 75%
- ED50 (Male Sprague Dawley rats): 2.96 mg/kg

From US9434711B2 (Janssen Pharmaceutica, NV, priority 2007, dated 2016)
